The text below walks through data of patent US5840750A, “Discodermolide compounds” (priority 1996, dated 1998).

The test system of one experiment is A549 human lung cells. In words: Cell cycle analysis of A549 human lung cells. It counts as cell-based. The settings on record: 48 hours. Here is the method: (§1) Cell cycle studies were initiated in order to pinpoint a specific phase within the cell cycle in which discodermolide was exerting its antiproliferative effect. GI-101A human breast and A549 human lung cells were used as cell cycle targets to compare the effects of discodermolide and taxol on perturbation of the cell cycle. Cell cycle analyses were performed as follows: GI-101A and A549 cells were incubated at 37° C. in 10% CO2 in air in the presence or absence of varying concentrations of discodermolide or taxol (purchased from Molecular Probes, Eugene, Oreg.) for 48 hours. Cells were harvested, fixed in ethanol, and stained with 0.5 mg/ml of propidium iodide (P.I.) together with 0.1 mg/ml of RNase A. This procedure permeabilizes live cells and allows entry of P.I. to stain DNA. Stained preparations were analyzed on a Coulter EPICS ELITE with 488 nm excitation with the dead cells excluded by back-gating of P.I. preparations without detergent on forward and side scatter histograms. Fluorescence measurements and resulting DNA histograms were collected from at least 5,000 P.I. stained cells at an emission wavelength of 690 nm. Raw histogram data were further analyzed using a cell cycle analysis program (Multicycle, Phoenix Flow Systems).
Discodermolide and taxol were compared for their effects on the proliferation of A549 human lung cells. Cell cultures were similarly initiated in the presence and absence of various concentrations of discodermolide or taxol and incubated at 37° C. in 10% CO2 in air for 48 hours. Cells were harvested and stained and analyzed on the flow cytometer as outlined above.

A further experiment has as its system bovine brain tubulin. In words: Tubulin polymerization monitored turbidimetrically. It counts as biochemical. Particulars: 10 μM drug. Here is the method: (§2) Discodermolide was analyzed for its interactions with tubulin. Tubulin polymerization was monitored turbidimetrically at 350 nm with an electronic temperature controller. Reaction mixtures contained 0.1M 4-morpholine-ethanesulfonate (pH 6.9), 1.0 mg/ml (10 μM) electrophoretically-homogenous bovine brain tubulin freed of unbound nucleotide by gel filtration, 0.5 mg/ml heat-treated MAPs, 100 μM GTP, and 4% (v/v) dimethylsulfoxide. A concentration of 10 μM of discodermolide (curve 3) was compared with the same concentration of taxol (curve 2) and no drug (curve 1), as shown in FIG. 5.

Experiment [1] relates to tubulin. The experiment can be described thus: Electron micrographs of polymers of tubulin. It counts as biochemical. Particulars: compared with control.
The test system of experiment [2] is Jurkat human leukemia cells. The experiment can be described thus: Cell cycle analysis of Jurkat human leukemia cells. It counts as cell-based. Particulars: 48 hours, discodermolide 100 ng/ml. The protocol: Discodermolide and taxol were compared for their effects on the proliferation of Jurkat human leukemia cells. Cell cultures were similarly initiated in the presence and absence of various concentrations of discodermolide or taxol and incubated at 37° C. in 10% CO2 in air for 48 hours. Cells were harvested and stained and analyzed on a flow cytometer using standard procedures. […] The percentage of S-phase cells in both groups increased from 25% in the control to 38% in both discodermolide- and taxol-treated cells.

The next experiment concerns cancers. The settings on record: clinical trials; cited from earlier work.
Experiment [3] deals with MCF-7 cells and MDA-MB-231 cells. The experiment can be described thus: Growth of human breast carcinoma cells. The format is cell-based. The settings on record: Breast carcinoma cell, results similar for both lines (MCF-7, MDA-MB-231). The protocol: (§3) The effect of discodermolide on two human breast carcinoma cell lines, estrogen receptor positive MCF-7 cells, and estrogen receptor negative MDA-MB-231 cells, was determined. The results were compared with those obtained by treatment with taxol. Both lines were examined for drug effects on growth and by indirect immunofluorescence for effects on the microtubule cytoskeleton. The results were similar for both lines. […] These patterns appeared at concentrations as low as 10 nm.

The subject of experiment [4] is tubulin. The experiment can be described thus: EC50 for the polymerization of tubulin. It counts as biochemical. Particulars: additional studies. Here is the method: as §2
The next experiment concerns microtubules. The settings on record: literature; cited from earlier work.
The subject of experiment [5] is microtubule cytoskeleton in MCF-7 cells and MDA-MB-231 cells. The experiment can be described thus: Indirect immunofluorescence for effects on the microtubule cytoskeleton of human breast carcinoma cells. It counts as cell-based. The settings on record: Homo sapiens, Breast carcinoma cell; only at much higher drug concentrations; read-out: concentration at which immunofluorescence changes occurred. Here is the method: as §3

In experiment [6] the test system is GI-101A human breast cells. The experiment can be described thus: Cell cycle analysis of GI-101A human breast cells. The format is cell-based. Particulars: 24 hours. Here is the method:
as §1
Approximately 56% of the control cells comprise the G1 phase of the cell cycle, and 30% comprise the S phase. Only approximately 14% of cells are demonstrable in the G2 /M phase in asynchronous cultures at any one time mainly due to their high proliferative rate (FIG. 2A). At 24 hours post culture initiation with 100 ng/ml of discodermolide, the percentage of cells in G1 phase decreased to 22%. […] The percentage of cells in G1 decreased from 56% in the control to 27% in taxol-treated cultures.

The subject of another experiment is BMSC 8.6. The experiment can be described thus: Constitutive proliferation of murine non-lymphoid BMSC 8.6 cells. The format is cell-based. Particulars: BMSC lines; up to 1 μg/ml. The source says:
(§4) ^d Bone marrow stromal cells (MBSC) derived from CS7BL/6 mice.

Another experiment relates to BMSC 8.3. In words: Constitutive proliferation of murine non-lymphoid BMSC 8.3 cells. The format is cell-based. Particulars: BMSC lines; up to 1 μg/ml.
Text: as §4

The test system of the next experiment is Swiss 3TC. The experiment can be described thus: Constitutive proliferation of murine non-lymphoid Swiss 3TC cells. The format is cell-based. The settings on record: 3T3; up to 1 μg/ml.
The test system of a further experiment is Normal Fibroblast. In words: Constitutive proliferation of human non-lymphoid normal (foreskin) fibroblasts. The settings on record: human fibroblasts; up to 3 μM.
In another experiment the test system is BMSC 25.4. The experiment can be described thus: Constitutive proliferation of murine non-lymphoid BMSC 25.4 cells. The format is cell-based. Particulars: BMSC lines; up to 1 μg/ml.
Text: as §4

The subject of another experiment is A549. In words: A549 IC50 (biological activity of octahydrodiscodermolide compounds). The format is cell-based, human. The protocol:
(§5) The octahydrodiscodermolide compounds were tested for biological activity and the following results obtained: […]

The test system of another experiment is P388. The experiment can be described thus: P388 IC50 (biological activity of octahydrodiscodermolide compounds). The format is cell-based. The protocol:
as §5

Text for Swiss 3TC: The effects of discodermolide on the inhibition of constitutive proliferation of a number of lymphoid and non-lymphoid cell lines of mouse or human origin was investigated.

As for `CC(=O)O[C@H]1C(=O)[C@@]2(C)[C@H]([C@H](OC(=O)c3ccccc3)[C@]3(O)C[C@H](OC(=O)[C@H](O)[C@@H](NC(=O)c4ccccc4)c4ccccc4)C(C)=C1C3(C)C)[C@]1(OC(C)=O)CO[C@@H]1C[C@@H]2O` [taxol, reference compound], in the experiment with A549 human lung cells (control 19%), the “percentage of S phase cells (in words)” value is given as “did not change significantly”. The “percentage of cells in G2 /M” value was 77% in the experiment with A549 human lung cells (discodermolide 100 ng/ml, control 4%); 28% in experiment [2] (control 7%); 37% in experiment [6] (discodermolide 100 ng/ml, control 14%). Besides, the “percentage of cells in G1” value is 11% in the experiment with A549 human lung cells (discodermolide 100 ng/ml, control 77%) and 34% in experiment [2] (control 68%). In addition, the “temperature at which tubulin polymerization/assembly began” value in the experiment with bovine brain tubulin (10 μM tubulin, MAPs, GTP, control 37° C.) was determined as 10 °C. For the same molecule, in the experiment with bovine brain tubulin (control disassembled), the “stability of assembly upon return of the mixture to 0° C.” value is on record as “modest decline”. In addition, in the experiment on tubulin [1], the “electron micrographs of polymers of tubulin” value was “very similar characteristics, presence of polymers, microtubules, and sheets; however, the taxol-inducedpolymers were somewhat longer than those induced with discodermolide”. Further, in experiment [2] (control 25%), the “percentage of S-phase cells” value turned out to be 38%. For the same molecule, the clinical effect result in the experiment on cancers is “effective in the treatment of a wide range of cancers”. Moreover, in experiment [3], the IC50 amounted to 2.1 nM. For the same molecule, the EC50 in the experiment on tubulin [4] came to 23 µM. The effect on microtubules result in the experiment on microtubules was “stabilizes microtubules and inhibits their depolymerization to free tubulin”. Besides, in [5], the minimal effective concentration was determined as 1 µM. Besides, the “effect on cell cycle progression” value in [6] (GI-101A) is “block at G2 /M”. For the same molecule, the “percentage of S phase cells” value in experiment [6] (discodermolide 100 ng/ml, control 30%) turned out to be 37%. In addition, the “percentage of cells in G1 phase” value in experiment [6] (discodermolide 100 ng/ml, control 56%) was 27%.
For Cyclosporin A [reference compound], the “inhibition (Cyclosporin A)” value in the experiment on BMSC 8.6, in the experiment on BMSC 8.3, in the experiment on Swiss 3TC, in the experiment on Normal Fibroblast and in the experiment on BMSC 25.4 was “no” throughout.
Turning to octahydrodiscodermolide [20SG721], the IC50 is 0.008 µg/mL with A549 and 0.02 µg/mL in the experiment on P388.
On the same counts, the results for octahydrodiscodermolide [20SG724] are greater than 5 µg/mL and 3.56 µg/mL.
